# Laboratory results published in ChEMBL document CHEMBL5154782, “Discovery of Potent PROTACs Targeting EGFR Mutants through the Optimization of Covalent EGFR Ligands” (J Med Chem, 2022).
# Active and inactive are the calls of the source. The calls are words filed in the database; no cut-off is given here.
# Columns and labels:
# [1] = system: Protein cereblon/Epidermal growth factor receptor (Homo sapiens), P00533+Q96SW2 [L858R,T790M]; assay: Protac activity at CRBN/EGFR L858R/T790M mutant in mouse BaF3 cells assessed as induction of EGFR degradation at 100 nM; assay type: cell-based
# [2] = system: Protein cereblon/Epidermal growth factor receptor (Homo sapiens), P00533+Q96SW2 [L858R,T790M,C797S]; assay: Protac activity at CRBN/EGFR L858R/T790M/C797S mutant in mouse BaF3 cells assessed as induction of EGFR degradation at 100 nM; assay type: cell-based
# [3] = target: von Hippel-Lindau disease tumor suppressor/Epidermal growth factor receptor (Homo sapiens, UniProt P00533+P40337); assay: Protac activity at VHL/EGFR deletion19 mutant in human HCC827 cells assessed as induction of EGFR degradation; assay type: cell-based
# HCC827 [4] = assay: Antiproliferative activity against human HCC827 cells expressing EGFR deletion19 mutant assessed as inhibition of cell proliferation; assay type: functional, cell-based
# [5] = system: von Hippel-Lindau disease tumor suppressor/Epidermal growth factor receptor (Homo sapiens), P00533+P40337 [L858R,T790M]; assay: Protac activity at VHL/EGFR L858R/T790M mutant in human NCI-H1975 cells assessed as induction of EGFR degradation at 100 nM incubated for 24 hrs by Western blot analysis relative to control; assay type: cell-based
# NCI-H1975 [6] = assay: Inhibition of colony formation in human NCI-H1975 cells at 1 to 30 nM incubated for 10 days by crystal violet based assay; assay type: functional, cell-based; conditions: dose 1-30 nM, time 10.0 day
# HCC827 [7] = assay: Inhibition of colony formation in human HCC827 cells at 1 to 30 nM incubated for 10 days by crystal violet based assay; assay type: functional, cell-based; conditions: dose 1-30 nM, time 10.0 day
# NCI-H1975 [8] = assay: Antiproliferative activity against human NCI-H1975 cells expressing EGFR L858R/T790M mutant assessed as inhibition of cell proliferation incubated for 72 hrs by MTT assay; assay type: functional, cell-based; conditions: NCI-H1975, 72 h
# HCC827 [9] = assay: Antiproliferative activity against human HCC827 cells expressing EGFR deletion19 mutant assessed as inhibition of cell proliferation incubated for 72 hrs by MTT assay; assay type: functional, cell-based; conditions: HCC827, 72 h
# A-431 = assay: Antiproliferative activity against human A-431 cells expressing EGFR wildtype assessed as inhibition of cell proliferation incubated for 72 hrs by MTT assay; assay type: functional, cell-based; conditions: A-431, 72 h
# [10] = system: von Hippel-Lindau disease tumor suppressor/Epidermal growth factor receptor (Homo sapiens), P00533+P40337 [L858R,T790M]; assay: Protac activity at VHL/EGFR L858R/T790M mutant in human NCI-H1975 cells assessed as induction of EGFR degradation at 10 nM incubated for 24 hrs by Western blot analysis relative to control; assay type: cell-based
# [11] = system: von Hippel-Lindau disease tumor suppressor/Epidermal growth factor receptor (Homo sapiens), P00533+P40337 [UNDEFINED MUTATION]; assay: Protac activity at VHL/EGFR/deletion19 in human HCC827 cells assessed as induction of EGFR degradation at 3 nM incubated for 24 hrs by Western blot analysis relative to control; assay type: cell-based
# [12] = system: von Hippel-Lindau disease tumor suppressor/Epidermal growth factor receptor (Homo sapiens), P00533+P40337 [UNDEFINED MUTATION]; assay: Protac activity at VHL/EGFR/deletion19 in human HCC827 cells assessed as induction of EGFR degradation at 30 nM incubated for 24 hrs by Western blot analysis relative to control; assay type: cell-based
# HCC827 [13] = assay: Antiproliferative activity against human […] assessed as inhibition of cell proliferation incubated for 72 hrs by MTT assay; assay type: functional, cell-based; conditions: HCC827, 72 h
# [14] = target: von Hippel-Lindau disease tumor suppressor/Epidermal growth factor receptor (Homo sapiens, UniProt P00533+P40337, L858R); assay: Protac activity at VHL/EGFR L858R mutant (unknown origin) assessed as inhibition of EGFR incubated for 40 mins in presence of ATP by Kinase Glo luminescence assay; assay type: protein assay
# [15] = target: von Hippel-Lindau disease tumor suppressor/Epidermal growth factor receptor (Homo sapiens, UniProt P00533+P40337, L858R/T790M); assay: Protac activity at VHL/EGFR L858R/T790M mutant (unknown origin) assessed as inhibition of EGFR incubated for 40 mins in presence of ATP by Kinase Glo luminescence assay; assay type: protein assay
compound,measurement,setting,value
O=C1CCC(N2C(=O)c3cccc(NCCOCCOCCOCCN4CCN(c5ccc(-c6ccc7c(c6)C(=O)N(C(C(=O)Nc6nccs6)c6ccccc6)C7)cn5)CC4)c3C2=O)C(=O)N1 (stereo not given),Activity,[1],59%
same,Activity,[2],74%
O=C1CCC(N2Cc3c(NC(=O)CCCCCCN4CCN(c5ccc(Nc6cc7c(N8CCC(CO)CC8)nc(Nc8ccc(F)cc8)nc7cn6)nc5)CC4)cccc3C2=O)C(=O)N1 (stereo not given),DC50,[3],34.8 nM
same,IC50,HCC827 [4],220 nM
C=CC(=O)N1CCC[C@H](n2c(Nc3ccccc3)nc3cnc(Nc4ccc(N5CCN(CCCCCCCC(=O)N[C@H](C(=O)N6C[C@H](O)C[C@H]6C(=O)NCc6ccc(-c7scnc7C)cc6)C(C)(C)C)CC5)cc4)nc32)C1,Activity,[5],74%
same,inhibition,NCI-H1975 [6],Active
same,inhibition,HCC827 [7],Active
same,IC50,NCI-H1975 [8],39 nM
same,IC50,HCC827 [9],2.55 nM
same,IC50,A-431,> 10000 nM
same,Activity,[10],< 20%
same,Activity,[11],69%
same,Activity,[12],78%
C=CC(=O)N1CCC[C@@H](n2c(Nc3ccccc3)nc3cnc(Nc4ccc(N5CCN(CCCCCCCC(=O)N[C@H](C(=O)N6C[C@H](O)C[C@H]6C(=O)N[C@@H](C)c6ccc(-c7scnc7C)cc6)C(C)(C)C)CC5)cc4)nc32)C1,IC50,HCC827 [13],6.49 nM
same,IC50,NCI-H1975 [8],1060 nM
COc1cc2ncnc(Nc3ccc(F)c(Cl)c3)c2cc1OCCCCCOCCOCCC(=O)N[C@H](C(=O)N1C[C@H](O)C[C@H]1C(=O)NCc1ccc(-c2scnc2C)cc1)C(C)(C)C,DC50,[3],11.7 nM
C=CC(=O)N1CC[C@@H](n2c(Nc3ccccc3)nc3cnc(Nc4ccc(N5CCN(CCCCCCC(=O)N[C@H](C(=O)N6C[C@H](O)C[C@H]6C(=O)NCc6ccc(-c7scnc7C)cc6)C(C)(C)C)CC5)cc4)nc32)C1,IC50,HCC827 [13],12.4 nM
same,IC50,NCI-H1975 [8],550 nM
Cc1ncsc1-c1ccc(CNC(=O)[C@@H]2C[C@@H](O)CN2C(=O)[C@@H](NC(=O)CCCCCCN2CCN(c3ccc(Nc4ncc5nc(Nc6ccccc6)n(C6CCCC6)c5n4)cc3)CC2)C(C)(C)C)cc1,DC50,[3],0.51 nM
same,IC50,HCC827 [4],0.76 nM
C=CC(=O)N1CC[C@H](n2c(Nc3ccccc3)nc3cnc(Nc4ccc(N5CCN(C)CC5)cc4)nc32)C1,IC50,[14],10 nM
same,IC50,[15],23 nM
same,IC50,NCI-H1975 [8],15 nM
same,IC50,HCC827 [9],0.47 nM
same,IC50,A-431,2900 nM
